Row | melting point [°C] | Compound
1 | 290 to 291 | COc1ccc(-c2[nH]nc3c2C(=O)c2c(NC(=O)NN4CCOCC4)cccc2-3)cc1 [Example 4, 1-[3-(4-methoxy-phenyl)-4-oxo-2,4-dihydro-indeno[1,2-c]pyrazol-5-yl]-3-morpholin-4-yl-urea]
2 | 267 to 269 | COc1ccc(-c2[nH]nc3c2C(=O)c2c(NC(N)=O)cccc2-3)cc1 [Example 5, [3-(4-methoxy-phenyl)-4-oxo-2,4-dihydro-indeno[1,2-c]pyrazol-5-yl]-urea]
3 | > 300 | COc1ccc(-c2[nH]nc3c2C(=O)c2c(NC(=O)CN4CCC(CN)CC4)cccc2-3)cc1 [Example 9, 2-(4-aminomethyl-piperidin-1-yl)-N-[3-(4-methoxy-phenyl)-4-oxo-2,4-dihydro-indeno[1,2-c]pyrazol-5-yl]-acetamide]
4 | > 300 | COC(=O)Nc1cccc2c1C(=O)c1c-2n[nH]c1-c1ccc(OC)cc1 [Example 11, 3-(4-Methoxyphenyl)-5-methoxycarbonylamino-2H-indeno-[1,2-c]pyrazol-4-one]
